The numbers were not newly measured in patent publication US8450339B2, “Compositions for treatment of common cold” (Takeda Pharma A/S, priority 2001, dated 2013), which cites them from elsewhere.

Each structure is given as a SMILES string. Where a name gives a salt, the structure may show the parent alone.

The conditions of data set [1]: aqueous solution.
The conditions of data set [2]: following administration.

Turning to `Cc1cc(C(C)(C)C)cc(C)c1CC1=NCCN1` [xylometazoline hydrochloride], in data set [1], the “Stability optimum, pH” value is 2. As for `CC(C)[N+]1(C)[C@@H]2CC[C@H]1CC(OC(=O)C(CO)c1ccccc1)C2.[Br-]` (some centres unmarked) [ipratropium bromide], in data set [2], the “Mean duration of effect” value was 6 h.
